Source: US20180298024A1, “CORTISTATIN ANALOGS AND USES THEREOF” (President and Fellows of Harvard College, priority 2015, published 2018)
Values joined by “and” are separate entries in the source; they are usually repeats but may differ in a detail not shown here. Equal entries are not always repeated.

What was measured:
Tachykinin NK1 = target: T1, Tachykinin NK1 (Homo sapiens, UniProt P25103); assay: Panlab assay, Tachykinin NK1; type: binding
T1 construct: Eurofins Panlabs
Method: (§1) Compounds A, B, C, and D were tested in Panlab assays to evaluate potential off-target activity using standard assay kits. Methods employed in these studies have been adapted from the scientific literature to maximize reliability and reproducibility. Reference standards were run as an integral part of each assay to ensure the validity of the results obtained.
(§2) IC50 values were determined by a non-linear, least squares regression analysis using MathIQ™ (ID Business Solutions Ltd., UK). Where inhibition constants (Ki) are presented, the Ki values were calculated using the equation of Cheng and Prusoff (Cheng, Y., Prusoff, W. H., Biochem. Pharmacol. 22:3099-3108, 1973) using the observed IC50 of the tested compound, the concentration of radioligand employed in the assay, and the historical values for the KD of the ligand (obtained experimentally at Eurofins Panlabs, Inc.). Where presented, the Hill coefficient (nH), defining the slope of the competitive binding curve, was calculated using MathIQ™.

[1] = target: hERG (human ether-à-go-go-related gene) potassium channel (Homo sapiens, UniProt Q12809); assay: in vitro
Method: (§3) The in vitro effects of compounds A, B, C, D, E, and F on the hERG (human ether-à-go-go-related gene) potassium channel current (a surrogate for IKr, the rapidly activating, delayed rectifier cardiac potassium current) expressed in mammalian cells were evaluated at room temperature using the QPatch HT (Sophion Bioscience A/S, Denmark), an automatic parallel patch clamp system. The test articles were evaluated at 1 μM, 3 μM, […] and 30 μM. Each test article concentration was tested in at least three cells. The duration of exposure to each test article concentration was a minimum of 3 minutes.

hERG potassium channel = hERG potassium channel (Homo sapiens, UniProt Q12809); assay: in vitro; details: human
Sequence of hERG potassium channel (Q12809 whole entry): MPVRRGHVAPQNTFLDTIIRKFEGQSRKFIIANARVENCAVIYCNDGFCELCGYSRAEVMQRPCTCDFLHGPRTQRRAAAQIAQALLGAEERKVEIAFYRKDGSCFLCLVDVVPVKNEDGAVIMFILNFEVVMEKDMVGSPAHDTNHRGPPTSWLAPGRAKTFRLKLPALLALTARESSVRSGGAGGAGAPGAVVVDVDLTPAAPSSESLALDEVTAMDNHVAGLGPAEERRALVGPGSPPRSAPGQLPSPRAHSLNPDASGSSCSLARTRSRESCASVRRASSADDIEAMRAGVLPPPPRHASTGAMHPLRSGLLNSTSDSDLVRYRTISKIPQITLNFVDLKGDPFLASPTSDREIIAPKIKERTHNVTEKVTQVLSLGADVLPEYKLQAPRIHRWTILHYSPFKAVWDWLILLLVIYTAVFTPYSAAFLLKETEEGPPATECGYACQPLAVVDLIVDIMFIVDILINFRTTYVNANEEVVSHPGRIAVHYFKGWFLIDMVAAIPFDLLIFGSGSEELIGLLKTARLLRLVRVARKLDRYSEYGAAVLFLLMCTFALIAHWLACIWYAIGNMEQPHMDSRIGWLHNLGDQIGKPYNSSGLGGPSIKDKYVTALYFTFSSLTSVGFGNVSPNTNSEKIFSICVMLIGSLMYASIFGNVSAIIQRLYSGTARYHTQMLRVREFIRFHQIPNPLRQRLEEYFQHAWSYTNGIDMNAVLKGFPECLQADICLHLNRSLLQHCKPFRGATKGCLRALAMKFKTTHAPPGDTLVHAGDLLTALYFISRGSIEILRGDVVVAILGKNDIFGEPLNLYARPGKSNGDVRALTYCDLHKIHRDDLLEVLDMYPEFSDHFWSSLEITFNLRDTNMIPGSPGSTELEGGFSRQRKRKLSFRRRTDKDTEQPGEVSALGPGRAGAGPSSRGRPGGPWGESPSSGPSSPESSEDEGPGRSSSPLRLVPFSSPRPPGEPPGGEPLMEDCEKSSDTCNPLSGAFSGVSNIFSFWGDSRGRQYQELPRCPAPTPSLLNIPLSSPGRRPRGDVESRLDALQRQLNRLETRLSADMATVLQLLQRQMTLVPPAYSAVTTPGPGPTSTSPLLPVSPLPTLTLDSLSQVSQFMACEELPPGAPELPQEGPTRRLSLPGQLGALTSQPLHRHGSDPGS
Method: as §3

[2] = TurboSol solubility evaluation in physiological saline; type: physicochemical; details: HB-PS+0.3% DMSO
off-targets (Panlabs) = assay: Panlab off-target assay panel; type: binding; details: 10 μM
Method: as §1, §2

hERG channel (IKr) = target: T2, hERG channel (IKr) (Homo sapiens, UniProt Q12809); assay: hERG (IKr) current, PatchXpress 7000A planar voltage clamp; type: cell-based; details: human, CHO or HEK293 cells expressing the hERG channel; PatchXpress functional voltage clamp
T2 construct: expressed in transfected cells; host or cells: CHO or HEK293 cells
Method: (§4) The objective of this study was to evaluate the in vitro effects of Compound F on three cardiac ion channel currents: IKr, the rapidly activating, delayed rectifier potassium current through hERG channel encoded by human ether-à-go-go-related gene; IKs, the slowly activating, delayed rectifier cardiac potassium channel current encoded by hKCNQ1/hKCNE1; and INa, the human cardiac Na+ channel current encoded by hNav1.5 in CHO or HEK293 cells (Table 7). This functional assay was conducted using higher throughput planar voltage-clamp technology PatchXpress 7000A.
(§5) Signal amplitudes were quantified at steady state during control (vehicle) and in the presence of increasing concentrations of the test compound. Concentration-dependent changes of signal in response to compound were expressed as percent block relative to control (pre-drug/trigger) and are reported as the mean±SEM (standard error) of the indicated number (N) of tested cells/wells. IC50 values were determined where applicable by fitting the averaged concentration-response data (mean±SEM) with a Hill equation.

hKCNQ1/hKCNE1 (IKs) = target: T3, hKCNQ1/hKCNE1 (IKs) (Homo sapiens, UniProt P51787); assay: IKs current, PatchXpress 7000A planar voltage clamp; type: cell-based
T3 construct: expressed in transfected cells; host or cells: CHO or HEK293 cells
Method: as §4, §5

hNav1.5 (INa) = target: T4, hNav1.5 (INa) (Homo sapiens, UniProt Q14524); assay: INa current, PatchXpress 7000A planar voltage clamp; type: cell-based
T4 construct: expressed in transfected cells; host or cells: CHO or HEK293 cells
T4 sequence (Q14524 whole entry): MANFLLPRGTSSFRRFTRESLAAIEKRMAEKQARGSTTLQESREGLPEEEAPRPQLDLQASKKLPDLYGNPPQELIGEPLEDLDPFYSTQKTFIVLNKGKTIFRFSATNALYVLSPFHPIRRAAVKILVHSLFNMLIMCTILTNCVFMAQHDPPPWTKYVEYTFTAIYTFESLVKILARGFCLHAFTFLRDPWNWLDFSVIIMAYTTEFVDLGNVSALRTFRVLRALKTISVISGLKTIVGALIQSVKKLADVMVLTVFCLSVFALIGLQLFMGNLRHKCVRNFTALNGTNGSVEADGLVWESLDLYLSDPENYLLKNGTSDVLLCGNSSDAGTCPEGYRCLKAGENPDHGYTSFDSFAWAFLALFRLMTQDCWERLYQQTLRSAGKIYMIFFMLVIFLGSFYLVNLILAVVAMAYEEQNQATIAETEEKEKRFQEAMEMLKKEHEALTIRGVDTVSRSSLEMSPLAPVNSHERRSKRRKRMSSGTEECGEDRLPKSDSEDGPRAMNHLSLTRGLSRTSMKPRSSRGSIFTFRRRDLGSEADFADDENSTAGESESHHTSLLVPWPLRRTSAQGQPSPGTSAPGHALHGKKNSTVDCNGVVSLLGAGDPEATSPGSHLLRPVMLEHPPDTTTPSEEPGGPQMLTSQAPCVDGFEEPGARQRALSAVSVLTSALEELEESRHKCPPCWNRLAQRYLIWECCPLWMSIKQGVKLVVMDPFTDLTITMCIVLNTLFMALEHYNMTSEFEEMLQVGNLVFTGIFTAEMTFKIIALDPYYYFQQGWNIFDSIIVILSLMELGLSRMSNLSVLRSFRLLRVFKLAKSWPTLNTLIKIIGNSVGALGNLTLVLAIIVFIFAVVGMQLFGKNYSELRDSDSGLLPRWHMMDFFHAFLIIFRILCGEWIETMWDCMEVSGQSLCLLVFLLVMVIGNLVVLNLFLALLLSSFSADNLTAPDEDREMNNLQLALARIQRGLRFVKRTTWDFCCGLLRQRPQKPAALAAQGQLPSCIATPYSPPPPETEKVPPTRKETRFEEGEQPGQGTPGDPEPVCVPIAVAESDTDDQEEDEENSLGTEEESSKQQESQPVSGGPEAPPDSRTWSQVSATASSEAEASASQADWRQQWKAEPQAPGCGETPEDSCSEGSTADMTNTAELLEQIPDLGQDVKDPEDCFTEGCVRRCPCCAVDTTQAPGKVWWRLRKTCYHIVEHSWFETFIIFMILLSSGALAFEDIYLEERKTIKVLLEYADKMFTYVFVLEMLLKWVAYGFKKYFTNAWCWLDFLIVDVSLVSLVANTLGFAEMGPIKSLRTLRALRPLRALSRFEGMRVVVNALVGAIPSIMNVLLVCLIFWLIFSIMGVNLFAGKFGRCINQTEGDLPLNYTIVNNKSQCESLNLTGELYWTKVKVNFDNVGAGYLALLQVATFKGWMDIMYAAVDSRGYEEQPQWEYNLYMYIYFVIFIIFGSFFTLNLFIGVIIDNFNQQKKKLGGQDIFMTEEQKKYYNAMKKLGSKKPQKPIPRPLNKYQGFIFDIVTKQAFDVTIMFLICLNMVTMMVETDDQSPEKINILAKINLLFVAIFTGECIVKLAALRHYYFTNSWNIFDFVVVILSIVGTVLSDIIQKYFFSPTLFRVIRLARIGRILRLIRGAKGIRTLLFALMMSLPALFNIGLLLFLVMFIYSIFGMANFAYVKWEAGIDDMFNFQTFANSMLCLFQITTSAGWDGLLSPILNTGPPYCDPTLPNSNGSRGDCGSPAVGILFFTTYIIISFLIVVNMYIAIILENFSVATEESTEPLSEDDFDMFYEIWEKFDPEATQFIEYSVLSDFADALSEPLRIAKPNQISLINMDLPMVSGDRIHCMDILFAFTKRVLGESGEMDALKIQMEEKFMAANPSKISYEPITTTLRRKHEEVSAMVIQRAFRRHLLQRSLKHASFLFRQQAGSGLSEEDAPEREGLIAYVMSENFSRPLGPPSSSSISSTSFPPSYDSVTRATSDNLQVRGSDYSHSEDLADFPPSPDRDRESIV
Method: as §4, §5

[3] = Tolerability study of Compound F (body weight); type: in vivo, mice
Method: Twenty seven mice were used for the tolerability study of Compound F. Mice were randomly assigned to various treatment groups with n=3 mice/group. In the low dose group of 0.3 mg/kg Compound F administered IP, mice were re-challenged after 8 days of drug holiday with a higher dose of 20 mg/kg Compound F, IP. All mice were treated for 7 days unless as indicated below.
Mice were monitored clinically for signs of morbidity and for body weights daily. Mice showing signs of morbidity were euthanized as per study guidelines.

SKNO-1 = assay: Half-maximal growth inhibition (GI50), SKNO-1; type: cell-based; details: Homo sapiens, 240 h, AML, M2, RUNX1-RUNX1T1, read-out: GI50 (nM), day 10
Method: (§6) Compounds A, B, C, D, and F were tested against various cell lines to probe their broad utility against cancer. Cortistatin A (CA) was also tested against the cell lines in a head to head fashion.

MV4; 11 = assay: Half-maximal growth inhibition (GI50), MV4; 11; type: cell-based; details: Homo sapiens, 240 h, AML, M5, MLL-AF4, read-out: GI50 (nM), day 10
Method: as §6

MOLM-14 = assay: Half-maximal growth inhibition (GI50), MOLM-14; type: cell-based; details: Homo sapiens, 240 h, AML, M5, MLL-AF9, read-out: GI50 (nM), day 10
Method: as §6

[4] = test system: Human AML cell line MV4;11; assay: MV4;11 disseminated leukemia model (bioluminescence); type: in vivo, NSG mice
Method: The in vivo anti-leukemic activity of Compounds A, B, C, D, and F was tested at the indicated doses and treatment schedules. The doses were chosen based on the compounds tolerability profile (i.e. CA was dosed at 0.16 mg/kg because higher doses caused weight loss or other tolerability issues outlined in Example 6). Human AML cell line MV4;11 expressing mCherry and luciferase were injected into NSG mice. Upon measurement of leukemia cell engraftment, treatment was initiated. Body weight and bioluminescence were measured. It has previously been shown (Shair, Nature 2015) that bioluminescence corresponds to leukemia burden. […] Moreover there was no appreciable advantage between IV or PO dosing observed.

[5] = Pharmacokinetic profile in mice (plasma, LC-MS/MS); details: male, CD-1, mouse, plasma, po, 1 mg/kg
Method: Formulation correction for salt content was not required for this study. Materials were vortexed and sonicated at room temperature following addition of vehicle. The solutions were maintained at ambient temperature stirring in the dark for at least 30 minutes prior to dose administration. The formulations were then vortexed and sonicated briefly to help ensure solubility.
Mice were selected from the Testing Facility's rodent colony. The animals were enrolled in the study based on acceptable health as determined by Testing Facility personnel on the day of test article administration. Animals were held in environmental acclimation for at least 48 hours (±6 hours) prior to dosing. Animals were maintained at temperatures between 16-26° C. (62-78° F.) with the humidity range between 30-70%. Animals in all groups were fasted overnight and food was returned 4 hours following dosing. Water was provided ad libitum throughout the study.
Whole blood samples for plasma were either collected from each animal by either direct vein puncture of the submandibular vein (survival blood collection) or by cardiac puncture following euthanasia with CO2 (terminal blood collection). […] Following collection, whole blood was placed into a tube containing K2EDTA and immediately placed on wet ice until processed for plasma. Whole blood samples were centrifuged at 2200×g for 10 minutes in a refrigerated centrifuge (5±3° C.) to isolate plasma. The samples were transferred to individual polypropylene containers and immediately placed on dry ice before storage at −70±10° C. until analysis. Plasma collected from undosed spare animals was pooled and analyzed as well.
Once collected the mouse plasma studies were quantitated using LCMS/MS spectroscopy to determine the concentration of compound. […] Eight calibration standards containing the analyte and internal standard imipramine were prepared and analyzed at the beginning and at the end of the sequence. A calibration curve was generated and sample concentrations calculated using the Quantitation software MassHunter.

hERG = hERG (Homo sapiens, UniProt Q12809); assay: hERG (IKr) current, PatchXpress 7000A planar voltage clamp; type: cell-based; set-up: expressed in transfected cells; host or cells: CHO or HEK293 cells
Sequence of hERG (Q12809 whole entry): as the sequence (Q12809 whole entry) above
Method: as §4, §5

[6] = Individual Data Points (% Inhibition), hERG

T1 sequence (P25103 whole entry): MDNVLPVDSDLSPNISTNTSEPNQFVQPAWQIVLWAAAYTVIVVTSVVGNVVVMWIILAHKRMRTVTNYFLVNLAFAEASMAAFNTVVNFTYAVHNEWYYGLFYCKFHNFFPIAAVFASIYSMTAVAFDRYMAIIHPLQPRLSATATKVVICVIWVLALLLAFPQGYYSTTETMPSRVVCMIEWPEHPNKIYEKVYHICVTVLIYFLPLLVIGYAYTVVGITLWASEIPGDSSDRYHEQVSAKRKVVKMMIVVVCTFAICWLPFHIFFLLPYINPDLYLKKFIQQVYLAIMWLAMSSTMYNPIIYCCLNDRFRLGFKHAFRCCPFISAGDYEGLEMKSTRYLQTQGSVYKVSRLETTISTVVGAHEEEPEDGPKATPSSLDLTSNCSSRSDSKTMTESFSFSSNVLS

With Ic1ccccc1CN[C@@H]1C2CCN(CC2)[C@@H]1C(c1ccccc1)c1ccccc1 (racemic) [L-703,606, reference compound] the “nH (Hill coefficient), Tachykinin NK1” value (Tachykinin NK1) was 0.88, the IC50 (Tachykinin NK1; reference standard) was 3.6 nM and the Ki (Tachykinin NK1; reference standard, Cheng and Prusoff) was 2.6 nM.

For C[C@]12CC=C3C=C4CC[C@@H](N5CCCC5)C[C@]45CCC3(O5)[C@@H]1CC[C@@H]2c1ccc2ccncc2c1 [Compound E], the “activity in the hERG assay” value [1] was “sub-micromolar activity”, the IC50 ([1]; hERG IC50, QPatch HT, room temperature) was 562 nM and the inhibition at 1 µM (hERG potassium channel; [6]) was 65.6%. For the same molecule, the inhibition at 3 µM (hERG potassium channel; [6]) was 83.4%, the inhibition at 10 µM (hERG potassium channel; [6]) was 93.8% and the inhibition at 30 µM (hERG potassium channel; [6]) was 97.7%. The inhibition at 1 µM (hERG potassium channel; Mean % hERG Inhibition) was 67.2%, the inhibition at 3 µM (hERG potassium channel; Mean % hERG Inhibition) was 79.2% and the inhibition at 10 µM (hERG potassium channel; Mean % hERG Inhibition) was 93%. The inhibition at 30 µM (hERG potassium channel; Mean % hERG Inhibition) was 98.8%, the “Average LSU (×1000)” value ([2]; 1 μM) was 3.7 LSU (×1000) and the “Average LSU (×1000)” value ([2]; 3 μM) was 4.7 LSU (×1000). For the same molecule, the “Average LSU (×1000)” value ([2]; 10 μM) was 6.4 LSU (×1000), the “Average LSU (×1000)” value ([2]; 30 μM) was 8.7 LSU (×1000) and the “solubility in the TurboSol assay” value [2] was “slightly insoluble at 30 μM”.

With C[C@]12CC=C3C=C4CC[C@@H](N5CCC5)C[C@]45CCC3(O5)[C@@H]1CC[C@@H]2c1ccc2ccncc2c1 [Compound F] the “number of targets with ≥75% inhibition” value (off-targets (Panlabs); Safety Panel = 28 binding assays (Eurofins Panlabs)) was 12, the “number of targets with greater than 50% inhibition” value (off-targets (Panlabs); over 100 Panlab assays) was “over 20” and the “number of targets with inhibition of greater than or equal to 75%” value (off-targets (Panlabs); over 100 Panlab assays) was 12. For the same molecule, the IC20 (hERG channel (IKr)) was 110 nM, the IC50 (hKCNQ1/hKCNE1 (IKs)) was 17000 nM and the “IKS % Block Mean ± SEM (n)” value (hKCNQ1/hKCNE1 (IKs); 10 μM) was 34 ± 7 (5) %. The “IKS % Block Mean ± SEM (n)” value (hKCNQ1/hKCNE1 (IKs); 30 μM) was 68±15% and 68 ± 15 (4) %, the “INa at 3 Hz % Block Mean ± SEM (n)” value (hNav1.5 (INa); 3.3 μM, pulsing rate 3 Hz) was 30 ± 5 (4) % and the “INa at 3 Hz % Block Mean ± SEM (n)” value (hNav1.5 (INa); 10 μM, pulsing rate 3 Hz) was 60 ± 3 (4) %. The inhibition at 30 µM (hNav1.5 (INa); 30 μM, pulsing rate 0.2 Hz) was 86 ± 2%, the “INa at 3 Hz % Block Mean ± SEM (n)” value (hNav1.5 (INa); 30 μM, pulsing rate 3 Hz) was 98±1% and 98 ± 1 (4) % and the IC50 (hNav1.5 (INa); pulsing rate 0.2 Hz) was 14000 nM. For the same molecule, the IC50 (hNav1.5 (INa); pulsing rate 3 Hz) was 6500 nM, the body weight loss ([3]; IP 20 mg/kg, 2 of 3 mice) was greater than 15% and the “average body weight loss” value ([3]; oral 1 mg/kg) was roughly 10%. For the same molecule, the body weight loss ([3]; oral 3 mg/kg, 3 of 3 mice, requiring drug holiday) was greater than 15%, the body weight loss ([3]; oral 10 mg/kg, not tolerated) was greater than 20% and the GI50 (SKNO-1) was less than 1 nM. For the same molecule, the GI50 (MV4; 11) was 1 nM, the GI50 (MOLM-14) was 3 nM and the “Fold increase in leukemia burden 15 days after 1st dose” value ([4]; 1 mpk PO QDx15, NSG mice) was 12.3 fold. The “Efficacy Rank Day 15” value ([4]; each compound at its own dose/schedule, data from 3 separate studies) was 6, the AUC(0-inf) [5] was 524 ng·h/mL and the “hERG % Block Mean ± SEM (n)” value (hERG; 0.12 μM) was 21 ± 2 (3) %. The “hERG % Block Mean ± SEM (n)” value (hERG; 0.37 μM) was 51 ± 1 (3) %, the “hERG % Block Mean ± SEM (n)” value (hERG; 1.1 μM) was 77 ± 0 (3) % and the “hERG % Block Mean ± SEM (n)” value (hERG; 3.3 μM) was 94 ± 0 (4) %. The “hERG % Block Mean ± SEM (n)” value (hERG; 10 μM) was 97 ± 0 (4) %, the “hERG % Block Mean ± SEM (n)” value (hERG; 30 μM) was 102 ± 1 (4) % and the IC50 (hERG; PatchXpress functional voltage clamp) was 370 nM.
